The subject of one series is hippocampal cells. Description: Survival of hippocampal cells after 7 days with activators (PFF model). In kind it is cell-based, mouse. To be noted: 0.5 and 2.5 μM, PFF-treated. The source says:
Encouraged by the results received, we tested the ability of the modulator-CPP constructs to increase α-synuclein degradation in a cell model using primary mouse neuronal cells. The presence of Lewy-like neurites and Lewy-like bodies containing aggregated α-synuclein with phosphorylated serine 129 (pS129-αsyn) is a characteristic feature of the brains of people with Parkinson’s disease. To mimic these aggregations, we introduced a solution of preformed fibrils (PFFs) to the media of neuronal cells, which led to the induction of α-synuclein phosphorylation and its aggregation in neurons isolated from mouse embryos. PFFs are purified, prion-like fibrils of α-synuclein that are produced by expressing a recombinant monomeric protein in bacteria. Seven days after PFFs are introduced to the cells, large aggregates are visible in the cell soma, often next to the cell nucleus. We added the PFF solution to the hippocampal cells, and after an hour of incubation, we introduced solutions of the activator. After 7 days, we immunostained neuronal cells using a monoclonal antibody against the NeuN protein, which is commonly used in neuronal differentiation studies to assess their functional status. Additionally, we stained the nuclei of all incubated cells with DAPI. […]

Series [1] relates to T1, human 20S proteasome, T-L peptidase.
T1 construct: human proteasome isolated from erythrocytes; from tissue; host or cells: human erythrocytes
Description: Trypsin-like (T-L) activity of h20S probed with Boc-LRR-AMC. The settings on record: 100 μM Boc-LRR-AMC. In kind it is biochemical. On the procedure:
To assess the influence of substitutions increasing proteolytic stability on the modulators’ capacity to stimulate chymotrypsin-like, trypsin-like, and caspase-like activity of h20S, we used classic fluorogenic substrates: Suc-LLVY-AMC, Boc-LRR-AMC, and Z-LLE-AMC, respectively.
The effect of all synthesized peptidomimetics on the catalytic activity of the proteasome was tested using a human proteasome isolated from erythrocytes. Suc-LLVY-AMC, Boc-LRR-AMC, and Z-LLE-AMC fluorogenic substrates (Bachem, Bubendorf, Switzerland) were used for assessment of the chymotrypsin-, trypsin-, and caspase-like activities, respectively. A homemade FRET-type substrate Dabcyl-EDANS (Lys(Dabcyl)-[…]EDANS)-Gly)[26] was used as an additional probe. Stock solutions of the substrates and tested peptidomimetics were prepared in dimethyl sulfoxide (DMSO), ensuring that the final concentration of DMSO in all samples remained consistent at 2%. The small fluorogenic substrates were used at a final concentration of 100 μM, while Dabcyl-EDANS was prepared at a final concentration of 15 μM. […] Activity tests were conducted in 96-well plates using 50 mM Tris/HCl, pH 8.0, as an assay buffer. The final concentration of h20S proteasome was adjusted to 0.002 mg/mL (2.8 nM). The fluorescence of released aminomethylcoumarin (AMC) was monitored at 460 nm (λex was 380 nm), while the hydrolysis of Dabcyl-EDANS was detected by measuring emission at 493 nm (λex was set at 335 nm). Fluorescence measurements were taken continuously every 2 min over a 60 min period at 37 °C using a Tecan Infinite M200Pro spectrofluorometer (Tecan Trading AG, Männedorf, Switzerland). All activity assays were performed in at least three independent replicates. The relative activity was calculated in relation to the catalytic activity of the vehicle (DMSO)-treated latent proteasome, which was regarded as 100%. Statistical analysis was performed using the one-way ANOVA followed by Tukey’s post-hoc test. P-value <0.05 was considered statistically significant.

The target of series [2] is T2, human 20S proteasome, ChT-L peptidase.
T2 construct: human proteasome isolated from erythrocytes; from tissue; host or cells: human erythrocytes
The experiment in a line: Chymotrypsin-like (ChT-L) activity of h20S probed with Suc-LLVY-AMC. It is filed as biochemical.

Broadly, the EC50 is the midpoint of the concentration-response curve.

For `C[C@@H](O)[C@H](NC(=O)[C@H](Cc1ccccc1)NC(=O)[C@H](Cc1ccc(O)cc1)NC(=O)CN(CCCCN)C(=O)[C@H](CCCNC(=N)N)NC(=O)[C@H](CCCNC(=N)N)NC(=O)[C@H](CCCNC(=N)N)NC(=O)[C@H](CCC(N)=O)NC(=O)[C@H](CCCNC(=N)N)NC(=O)[C@H](CCCNC(=N)N)NC(=O)[C@H](CCCCN)NC(=O)[C@H](CCCCN)NC(=O)[C@@H](N)CCCNC(=N)N)C(=O)NCC(=O)N[C@@H](CO)C(=O)N[C@@H](CCCCN)C(=O)N[C@@H](CC(=O)O)C(=O)N[C@@H](Cc1c[nH]c2ccccc12)C(=O)N[C@@H](CCCNC(=N)N)C(=O)N[C@@H](CO)C(=O)N[C@@H](Cc1ccc(O)cc1)C(=O)N[C@@H](Cc1ccc(O)cc1)C(=O)N[C@@H](CO)C(=O)O` [1f], the “cytotoxicity to hippocampal cells” value in the series with hippocampal cells is reported as “did not show cytotoxicity to hippocampal cells”. Besides, the “T-L stimulating capacity, Boc-LRR-AMC” value in series [1] is “activated the T-L less and less with an increasing concentration”. It took 540 ± 100 nM to reach a half-maximal effect in series [2] (Suc-LLVY-AMC, n = 6, EC50 = concentration causing 50% growth of activity vs vehicle control) (EC50). Besides, the “stimulation of proteasome activity” value in series [2] (as summed up in Conclusions, substrate not named there) is “approximately 17 times”. Besides, the “stimulation of the ChT-L peptidase” value in series [2] (at 1 μM concentration, Suc-LLVY-AMC) is reported as “approximately 16 fold”.

The record behind these values is article PMC12035797, “Peptidomimetics Activating the Proteasome: A New Perspective for Parkinson’s Treatment” (Journal of Medicinal Chemistry, 2025).
